Test results reported in US7759356B2, “Arylindenopyridines and arylindenopyrimidines and related therapeutic and prophylactic methods” (Janssen Pharmaceutica, N.V., priority 2002, dated 2010).

Legend:
[1] = target: T1, human adenosine A2a receptors (Homo sapiens, UniProt P29274); assay: Adenosine A2a receptor functional assay (antagonist mode, cAMP-inducible beta-galactosidase reporter, CHO-K1 cells, 50 nM NECA); type: cell-based; settings: read-out: Ki A2a antagonist function
T1 construct: expressed in transfected cells; host or cells: CHO-K1 cells with cAMP-inducible beta-galactosidase reporter gene
T1 sequence (P29274 whole entry): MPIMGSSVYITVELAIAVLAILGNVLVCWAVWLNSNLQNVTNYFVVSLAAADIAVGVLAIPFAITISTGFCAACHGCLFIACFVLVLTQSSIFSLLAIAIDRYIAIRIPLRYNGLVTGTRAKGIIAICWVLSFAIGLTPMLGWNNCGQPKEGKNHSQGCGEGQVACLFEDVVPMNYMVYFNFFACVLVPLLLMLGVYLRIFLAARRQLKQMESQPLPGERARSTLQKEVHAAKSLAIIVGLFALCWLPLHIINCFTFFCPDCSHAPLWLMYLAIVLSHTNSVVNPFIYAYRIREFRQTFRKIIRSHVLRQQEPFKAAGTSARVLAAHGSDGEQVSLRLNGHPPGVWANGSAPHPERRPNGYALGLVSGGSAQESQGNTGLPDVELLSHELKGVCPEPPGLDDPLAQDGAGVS
Protocol: Adenosine A2a Receptor Functional Assay
CHO—K1 cells overexpressing human adenosine A2a receptors and containing cAMP-inducible beta-galactosidase reporter gene were seeded at 40-50K/well into 96-well tissue culture plates and cultured for two days. On assay day, cells were washed once with 200 μL assay medium (F-12 nutrient mixture/0.1% BSA). For agonist assay, adenosine A2a receptor agonist NECA was subsequently added and cell incubated at 37° C., 5% CO2 for 5 hrs before stopping reaction. In the case of antagonist assay, cells were incubated with antagonists for 5 minutes at R.T. followed by addition of 50 nM NECA. Cells were then incubated at 37° C., 5% CO2 for 5 hrs before stopping experiments by washing cells with PBS twice. 50 μL 1× lysis buffer (Promega, 5× stock solution, needs to be diluted to 1× before use) was added to each well and plates frozen at −20° C. For β-galactosidase enzyme colorimetric assay, plates were thawed out at room temperature and 50 μL 2× assay buffer (Promega) added to each well. Color was allowed to develop at 37° C. for 1 h or until reasonable signal appeared. Reaction was then stopped with 150 μL 1M sodium carbonate. […] Data was analyzed in Microsoft Excel and GraphPad Prism programs.

A1 = target: T2, A1 (Homo sapiens, UniProt P30542); assay: A1 antagonist function; type: cell-based
T2 sequence (P30542 1-326): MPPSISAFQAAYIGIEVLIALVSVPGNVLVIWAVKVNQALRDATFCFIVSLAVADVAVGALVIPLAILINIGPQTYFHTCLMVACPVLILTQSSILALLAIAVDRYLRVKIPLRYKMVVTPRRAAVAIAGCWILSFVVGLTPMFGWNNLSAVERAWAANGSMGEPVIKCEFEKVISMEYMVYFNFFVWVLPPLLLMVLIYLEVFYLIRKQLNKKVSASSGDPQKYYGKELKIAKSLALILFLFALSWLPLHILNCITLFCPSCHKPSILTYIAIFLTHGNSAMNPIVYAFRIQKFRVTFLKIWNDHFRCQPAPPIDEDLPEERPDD

[2] = target: T3, human A2a adenosine receptor (Homo sapiens, UniProt P29274); assay: Ligand binding assay for adenosine A2a receptor ([3H]CGS21680, HEK293 membranes); settings: radioligand [3H]CGS21680, HEK293 plasma membrane
T3 construct: purchased PerkinElmer RB-HA2a; host or cells: HEK293 cell plasma membranes
T3 sequence (P29274 whole entry): as the sequence (P29274 whole entry) above
Protocol: Ligand Binding Assay for Adenosine A2a Receptor
Ligand binding assay of adenosine A2a receptor was performed using plasma membrane of HEK293 cells containing human A2a adenosine receptor (PerkinElmer, RB-HA2a) and radioligand [^3H]CGS21680 (PerkinElmer, NET1021). Assay was set up in 96-well polypropylene plate in total volume of 200 μL by sequentially adding 20 μL1:20 diluted membrane, 130 μL assay buffer (50 mM Tris.HCl, pH7.4 10 mM MgCl2, 1 mM EDTA) containing [^3H] […] Nonspecific binding was determined by […] NECA. Reaction was carried out at room temperature for 2 hours before filtering through 96-well GF/C filter plate pre-soaked in 50 mM Tris.HCl, pH7.4 containing 0.3% polyethylenimine. Plates were then washed 5 times with cold 50 mM Tris.HCl, pH7.4, dried and sealed at the bottom. Microscintillation fluid 30 μl was added to each well and the top sealed. Plates were counted on Packard Topcount for [^3H]. Data was analyzed in Microsoft Excel and GraphPad Prism programs.

Ki [1] | Ki (A1) | Ki [2] | Compound
0.126 nM | 0.91 nM | 0.05 nM | Nc1nc(-c2ccco2)c2c(n1)-c1cccc(N)c1C2=O [Compound 20]
 |  | 31.6 nM | COc1ccc(-c2nc(N)nc3c2C(=O)c2ccccc2-3)cn1 [Compound 30]
0.34 nM | 0.021 nM | 0.175 nM | CC(O)C(O)c1cccc2c1-c1nc(N)nc(-c3ccccc3)c1C2=O (stereo not drawn) [Compound 33]
 |  | 2720 nM | CS(=O)(=O)c1nc(N)nc2c1C(=O)c1ccccc1-2 [Compound 40, 2-Amino-4-methanesulfonyl-indeno[1,2-d]pyrimidin-5-one]
 |  | 80.2 nM | CN1CCN(Cc2cccc3c2C(=O)c2c(-c4ccccc4)nc(N)nc2-3)CC1 [Compound 50]
11.7 nM | 61 nM | 30.6 nM | Nc1nc(-c2ccccc2)c2c(n1)-c1cccc(CN3CCN(CCO)CC3)c1C2=O [Compound 58]
 | > 500 nM |  | CN(C)CCN(C)C(=O)c1c(N)nc(-c2ccco2)c2c1-c1ccccc1C2=O [Compound 77, 9H-indeno[2,1-c]pyridine-4-carboxylic acid, 3-amino-1-furan-2-yl-9-oxo-, (2-dimethylamino-ethyl)-methyl-amide]
 | > 500 nM |  | CC(CN(C)C)NC(=O)c1c(N)nc(-c2ccco2)c2c1-c1ccccc1C2=O (stereo not drawn) [Compound 78, 9H-indeno[2,1-c]pyridine-4-carboxylic acid, 3-amino-1-furan-2-yl-9-oxo-, (2-dimethylamino-1-methyl-ethyl)-amide]
 |  | 64 nM | CN(C)CCOC(=O)c1c(N)nc(-c2ccsc2)c2c1-c1ccccc1C2=O [Compound 93]
10.1 nM | 52.5 nM | 48.5 nM | C[C@@H](CN(C)C)OC(=O)c1c(N)nc(-c2ccco2)c2c1-c1ccccc1C2=O [Compound 96]
